# Patent US8263385B2, “S-triazine-herbicide-degrading bacteria, product for the bioremediation and method of bioremediation” (priority 2007, dated 2012)
# Tested on: Pseudomonas sp. strain MHP41
# Test: Antibiotic sensitivity of strain MHP41
# Assay type: cell-based
smiles,measurement,value
[H]/N=C(/N)N[C@H]1[C@H](O)[C@@H](O)[C@H](O[C@@H]2O[C@@H](C)[C@](O)(C=O)[C@H]2O[C@@H]2O[C@@H](CO)[C@H](O)[C@@H](O)[C@@H]2NC)[C@@H](N/C(N)=N\[H])[C@@H]1O [streptomycin],sensitivity or resistance of the strain to the antibiotic,sensitive
CC1(C)S[C@@H]2[C@H](NC(=O)C(C(=O)O)c3ccccc3)C(=O)N2[C@H]1C(=O)O (stereo partly drawn) [carbamicillin],sensitivity or resistance of the strain to the antibiotic,sensitive
CC1(C)S[C@@H]2[C@H](NC(=O)[C@H](N)c3ccccc3)C(=O)N2[C@H]1C(=O)O [ampicillin],sensitivity or resistance of the strain to the antibiotic,natural resistance
